# Measurements: patent publication US20260234165A1, “MACROCYCLIC COMPOUNDS, PREPARATION METHOD THEREFOR, AND USE THEREOF” (GENFLEET THERAPEUTICS (SHANGHAI) INC., priority 2004, published 2026)
# Test system: p-ERK in NCI-H441 cells (KRAS G12V mutation)
# Test: Cell p-ERK assay (HTRF) in NCI-H441 cells
# Format: cell-based, human
# Details: Homo sapiens, NCI-H441, 3 h, NCI-H441 cells, 3 h compound incubation, HTRF p-ERK T202/Y204; read-out: H441 p-ERK IC50
# Description: AsPC-1 cells were purchased from ATCC, Cat. No. CRL-1682: NCI-H441 cells were purchased from ATCC, Cat. No. HTB-174: RPMI-1640 medium was purchased from Gibco, Cat. No. I1875-093: FBS was purchased from Gibco, Cat. No. 10099-141C: penicillin/streptomycin double-antibiotic solution (PS) was purchased from Gibco, Cat. No. 15140-122: trypsin (containing EDTA) was purchased from Gibco, Cat. No. 25200-072; DMSO was purchased from VWRAMRESCO, Cat. No. 0231-500ML; 96-well cell culture plates were purchased from Corning, Cat. No. 3599: white-bottomed, opaque 96-well plates were purchased from Cisbio, Cat. No. 66PL96025; Advance ERK phospho-T202/Y204 kit was purchased from Cisbio, Cat. No. 64AERPEH; cell counter was purchased from CHEMOMETEC, model: NC-200; microplate reader was purchased from PerkinElmer, model: EnVision.
# AsPC-1, a human pancreatic cancer cell strain endogenously containing a KRAS^G12D mutation, was cultured in a complete medium containing RPMI-1640+10% FBS+1% PS. NCI-H441, a human non-small cell lung cancer cell strain endogenously containing a KRAS^G12V mutation, was cultured in a complete medium containing RPMI-1640+10% FBS+1% PS.
# The cells were digested with trypsin (containing EDTA), collected in their corresponding complete media, and counted. The density of the cell suspensions was adjusted with their corresponding complete media, and 10000 AsPC-1 cells or 20000 NCI-H441 cells per well were seeded into a 96-well cell culture plate, with the volume of the medium in each well being 80 μL.
# The cell culture plate was incubated in an incubator at 37° C. with 5% CO2 overnight. A series of 3.16-fold gradient dilutions of a 1000- compound stock solution were prepared with DMSO, and then diluted 200-fold with the complete medium described above to give 5′ compound stock solutions. On the day after cell seeding, 20 μL of the 5× compound stock solution was added to each cell culture well. As a result, the final concentration of the compound in the cell culture well became 1×, and the DMSO content in the well was 0.1%. In addition to the compound-treated wells described above, cell-containing DMSO control wells were also set. A complete medium containing 0.5% DMSO was added at 20 μL/well. After the mixture was well mixed, the culture plate was incubated in the incubator at 37° C. with 5% CO2 for another 3 h. The medium was then removed from the culture wells, and 50 μL of cell lysis buffer (from Advance ERK phospho-T202,Y204 kit) was added to each well. The mixture was well mixed and incubated for 30 min. Then, 16 μL of the mixture was transferred to a white-bottomed, opaque 96-well assay plate, and separately, 16 μL of cell lysis buffer was added to additional wells (serving as blank wells) in the assay plate. After the transfer was completed, 4 μL of p-ERK HTRF antibody mixture (from Advance ERK phospho-T202/Y204 kit) was added to each well of the assay plate, followed by a 4-hour incubation. The HTRF signal values (RLU) were then measured using a microplate reader, and the inhibition rate of the compound against p-ERK levels was calculated as follows: IR (%)=(RLUDMSO−RLUcompound)/(RLUDMSO−RLUblank)×100%, where RLUDMSO is the average HTRF signal value from the DMSO control well samples, RLUblank is the average HTRF signal value from the blank well samples, and RLUcompound is the HTRF signal value from the compound-treated well samples. Using an XLfit software, the IR (%) values were plotted against the logarithm of the compound concentrations, and the dose-response curves were fitted using the four-parameter method to calculate the IC50 values.
row,Compound,IC50
1,"CCn1c(-c2cc(C#CCN3CCCOCC3)cnc2[C@H](C)OC)c2c3cc(ccc31)-c1csc(n1)C[C@H](NC(=O)CC(C)(C)C)C(=O)N1CCC[C@H](N1)C(=O)OCC(C)(C)C2 (atropisomer, axis not shown; (Ra)) [Compound Z798, N-((6^3S,4S,Z)—(Ra)-1^2-(5-(3-(1,4-oxazepan-4-yl)propyn-1-yl)-2-((S)-1-methoxyethyl)pyridin-3-yl)-1^1ethyl-10,10-dimethyl-5,7-dioxo-6^1,6^2,6^3,6^4,6^5,6^6-hexahydro-1^1H-8-oxa-2(4,2)-thiazola-1(5,3)-indola-6(1,3)-pyridazinacycloundecaphane-4-yl)-3,3-dimethylbutanamide]",3.89 nM
2,"CCn1c(-c2cc(N3CCN(c4ccc(C)cc4)CC3)cnc2[C@H](C)OC)c2c3cc(ccc31)-c1csc(n1)C[C@H](NC(=O)[C@H]1[C@H](C)[C@@H]1C)C(=O)N1CCC[C@H](N1)C(=O)OCC1(CC1)C2 [Compound Z461, (1r,2R,3S)—N-((3′S,4′S,Z)-1′-ethyl-2′-(2-((S)-1-methoxyethyl)-5-(4-(p-tolyl)piperazin-1-yl)pyridin-3-yl)-5′,7′-dioxospiro[cyclopropane-1,10′-8-oxa-2(4,2)-thiazola-1(5,3)-indola-6(1,3)-pyridazinacycloundecaphan]-4′-yl)-2,3-dimethylcyclopropane-1-carboxamide]",93 nM
3,"CCn1c(-c2cc(C#CCN3CCCOCC3)cnc2[C@H](C)OC)c2c3cc(ccc31)-c1csc(n1)C[C@H](NC(=O)[C@H](C(C)C)N(C)S(C)(=O)=NC)C(=O)N1CCC[C@H](N1)C(=O)OCC(C)(C)C2 (mixture of isomers) [Compound Z912, (2S)—N-((6^3S,4S,Z)-1^2-(5-(3-(1,4-oxazepan-4-yl)prop-1-yn-1-yl)-2-((5)-1-methoxyethyl)pyridin-3-yl)-1^1-ethyl-10,10-dimethyl-5,7-dioxo-6^1,6^2,6^3,6^4,6^5,6^6-hexahydro-1^1H-8-oxa-2(4.2)-thiazola-1(5,3)-indola-6(1,3)-pyridazinacycloundecaphane-4-yl)-2-(N,N-dimethylmethylsulfonimidoyl)-3-methylbutanamide]",1.83 nM
4,"CCn1c(-c2cc(N3CCN(CCS(C)(=O)=O)CC3)cnc2[C@H](C)OC)c2c3cc(ccc31)-c1csc(n1)C[C@H](NC(=O)[C@H]1[C@H](C)[C@@H]1C)C(=O)N1CCC[C@H](N1)C(=O)OCC1(CC1)C2 (atropisomer, axis not shown; (Sa)) [Compound Z377, (1r,2R,3S)—N-((3′S,4′S,Z)-1′-ethyl-(Sa)-2′-(2-((S)-1-methoxyethyl)-5-(4-(2-(methylsulfonyl)ethyl)piperazin-1-yl)pyridin-3-yl)-5′,7′-dioxospiro[cyclopropane-1,10′-8-oxa-2(4,2)-thiazola-1(5,3)-indola-6(1,3)-pyridazinacycloundecaphan]-4′-yl)-2,3-dimethylcyclopropane-1-carboxamide]",87.8 nM
5,"CCn1c(-c2cc(C3(C(=O)N4CCN(C)CC4)CC3)cnc2[C@H](C)OC)c2c3cc(ccc31)-c1csc(n1)C[C@H](NC(=O)[C@H]1[C@H](C)[C@@H]1C)C(=O)N1CCC[C@H](N1)C(=O)OCC1(CC1)C2 [Compound Z347, (1r,2R,3b)-N-((3′S,4′S,Z)-1′-ethyl-2′-(2-(1-methoxyethyl)-5-(1-(4-methylpiperazine-1-carbonyl)cyclopropyl)pyridin-3-yl)-5′,7′-dioxospiro[cyclopropane-1,10′-8-oxa-2(4,2)-thiazola-1(5,3)-indola-6(1,3)-pyridazinacycloundecaphan]-4-yl)-2,3-dimethylcyclopropane-1-carboxamide]",152 nM
6,"CCn1c(-c2cc(C#CCN3CCCOCC3)cnc2[C@H](C)OC)c2c3cc(ccc31)-c1csc(n1)C[C@H](NC(=O)[C@H]1[C@H](C)[C@@H]1C)C(=O)N1CCC[C@H](N1)C(=O)OCC(C)(C)C2 (atropisomer, axis not shown; (Sa)) [Compound Z547, (1r,2R,3S)—N-((6^3S,4S,Z)—(Sa)-1′-(5-(3-(1,4-oxazepan-4-yl)prop-1-yn-1-yl)-2-((S)-1-methoxyethyl)pyridin-3-yl)-1′-ethyl-10,10-dimethyl-5,7-dioxo-6^1,6^2,6^3,6^4,6^5,6^6-hexahydro-1^1H-8-oxa-2(4,2)-thiazola-1(5,3)-indola-6(1,3)-pyridazinacycloundecaphane-4-yl)-2,3-dimethylcyclopropane-1-carboxamide]",78.1 nM

# Next, values leading:
row,IC50,Compound
1,2.17 nM,"CCn1c(-c2cc(C#CCN3CCN(C(C)=O)CC3)cnc2[C@H](C)OC)c2c3cc(ccc31)-c1csc(n1)C[C@H](Nc1nnc3cc(C)ccn13)C(=O)N1CCC[C@H](N1)C(=O)OCC(C)(C)C2 (atropisomer, axis not shown; (Ra)) [Compound Z981]"
2,1.54 nM,"CCn1c(-c2cc(C#CCN3CCN(C)S(=O)(=O)CC3)cnc2[C@H](C)OC)c2c3cc(ccc31)-c1csc(n1)C[C@H](Nc1nnc3cc(C)ccn13)C(=O)N1CCC[C@H](N1)C(=O)OCC(C)(C)C2 (atropisomer, axis not shown; (Ra)) [Compound Z1027, (6^3S,4S,Z)-1^1-ethyl-1^2-(Ra)-(2-((S)-1-methoxyethyl)-5-(3-(2-methyl-1,1-dioxido-1,2,5-thiadiazepan-5-yl)prop-1-yn-1-yl)pyridin-3-yl)-10,10-dimethyl-4-((7-methyl-[1,2,4]triazolo[4,3-a]pyridin-3-yl)amino)-6^1,6^2,6^3,6^4,6^5,6^6-hexahydro-1^1H-8-oxa-2(4,2)-thiazola-1(5,3)-indola-6(1,3)-pyridazinacycloundecaphane-5,7-dione]"

# Same assay, conditions: NCI-H441 cells, 3 h compound incubation, HTRF p-ERK T202/Y204; read-out: H441 p-ERK IC50
row,Compound,IC50
1,"CCn1c(-c2cc(C#CCN3CC4CCC(C3)N4C(C)=O)cnc2[C@H](C)OC)c2c3cc(ccc31)-c1csc(n1)C[C@H](Nc1nnc3cc(C)ccn13)C(=O)N1CCC[C@H](N1)C(=O)OCC(C)(C)C2 (atropisomer, axis not shown; (Ra)) [Compound Z1014, (6^3S,4S,Z)-1^2-(5-(3-(8-acetyl-3,8-diazabicyclo[3.2.1]octan-3-yl)prop-1-yn-1-yl)-(Ra)-2-((S)-1-methoxyethyl)pyridin-3-yl)-1^1-ethyl-10,10-dimethyl-4-((7-methyl-[1,2,4]triazolo[4,3-a]pyridin-3-yl)amino)-6^1,6^2,6^3,6^4,6^5,6^6-hexahydro-1^1H-8-oxa-2(4,2)-thiazola-1(5,3)-indola-6(1,3)-pyridazinacycloundecaphane-5,7-dione]",3.35 nM
2,"CCn1c(-c2cc(C#CCN3CCCOCC3)cnc2[C@H](C)OC)c2c3cc(ccc31)-c1csc(n1)C[C@H](Nc1nnc3cc(Br)ccn13)C(=O)N1CCC[C@H](N1)C(=O)OCC(C)(C)C2 [Compound Z960, (6-S,4S,Z)—(R4)-1^2-(5-(3-(1,4-oxazepan-4-yl)prop-1-yn-1-yl)-2-((S)-1-methoxyethyl)pyridin-3-yl)-4-((7-bromo-[1,2,4]triazolo[4,3-a]pyridin-3-yl)amino)-1^1-ethyl-10,10-dimethyl-6^1,6^2,6^3,6^4,6^5,6^6-hexahydro-1^1H-8-oxa-2(4,2)-thiazola-1(5,3)-indola-6(1,3)-pyridazinacycloundecaphane-5,7-dione]",5.46 nM
